Laboratory results reported in patent US5164295A, “Method for identifying amyloid protein-extracellular matrix protein affinity altering compounds” (The Upjohn Company, priority 1991, dated 1992).

Columns and labels:
[1] = biological target: T1, HSPG binding to AAP695 /s (Homo sapiens, UniProt P05067); assay: Effect of test compounds on intact HSPG binding to immobilized AAP695 /s (ELISA); details: for HSPG binding, % of control: AAP695
T1 construct: maintained the entire extracellular portion of the AAP; made in house; host or cells: insect cells (recombinant baculovirus)
Procedure: (§1) The assay comprised immobilizing AAP695 /s which was then exposed to free HSPG in the absence or presence of test compounds. Other aspects of the assay included exposing free HSPG to either immobilized AAP751 /s, or AAP770 /s, each in the absence or presence of test compounds. The assay was also performed with fibronectin as the immobilized protein in order to provide a positive control. In each case, a series of concentrations of HSPG and test compounds was used. Additionally, to determine whether or not the carbohydrate moiety of HSPG was involved in the binding to immobilized components, the carbohydrate moiety of HSPG was removed and assays were performed using the carbohydrate-free HSPG core protein. The test compounds used in experiments described here include heparin, dextran sulfate, chondroitin sulfate, dermatan sulfate, fibronectin, gelatin, bovine serum albumin (BSA), Ca^++ (CaCl2), Mg^++ (MgCl2), Mn^++ (MnCl2), Co^++ (Co(NO3)2), and Zn^++ (ZnCl2).
(§2) The assay used in studying the interaction between HSPG and protein ligands was an ELISA technique. Briefly, polystyrene micro-titer plates (Linbro, Flow Lab Inc.) were coated with a 100 μl solution, containing 1 μg/ml of the protein of interest (one of the three forms of AAP or fibronectin) in 20 mM NaHCO3 buffer pH 9.6. After incubation overnight at 4° C., the plates were rinsed with 0.15M NaCl, 20 mM Tris-Cl pH 7.5 (TBS). The plates were then incubated with 150 μl of 1% BSA in TBS for 2 hours at 37° C. to block the residual hydrophobic surface on the wells. After rinsing with TBS containing 0.05% (w/v) Tween 20 (TBS-Tween), 100 μl of various concentrations of HSPG in TBS-Tween were added. The plates were left overnight at 4° C., to permit maximum binding of HSPG to the coated proteins. The plates were then washed extensively and incubated for 2 hours at 37° C., with 100 μl of anti-HSPG diluted in TBS-Tween containing 0.1% BSA. The plates were washed again and incubated for another 2 hours with 100 μl of goat anti-rabbit-IgG conjugated with alkaline phosphatase (1:2000 dilution) in TBS-Tween containing BSA as above. Finally, after further washing, the bound antibodies were detected by adding an alkaline phosphatase substrate solution (100 μl) containing 2 mg/ml p-nitrophenyl phosphate, 0.1 mM ZnCl2, 1 mM MgCl2 and 100 mM glycine pH 10. The plates were left at room temperature for 15-120 minutes depending on the protein tested. The enzyme reaction was stopped by addition of 50 μl of 2M NaOH. The absorbance of the released p-nitrophenol was measured at 405 nm with a Titertek Multiscan/MCC 340 (Flow Lab. Ltd.). The amounts of HSPG bound were determined by the net OD405 after substracting the OD from the blank wells in which the HSPG incubation step was omitted. When the actual amounts of HSPG bound were to be calculated, a set of standards (0.05-50 ng/well) of HSPG in NaHCO3 buffer were pre-coated into wells on the same plates as the test proteins. The incubations proceeded as described above omitting the incubation of the HSPG solution with the HSPG standard coated wells. The actual amounts of HSPG bound to the test proteins were calculated from the OD405 standard curve produced by the HSPG standards using a Titersoft II E.J.A. software program (Flow Lab. Ltd.).
(§3) Heparin and dextran sulfate, respectively, were each used as test compounds to determine their effect on the HSPG binding to AAP forms and fibronectin. Various concentrations of heparin or dextran sulfate were added together with a constant amount of HSPG to wells coated with AAPs for fibronectin.

[2] = biological target: T2, HSPG binding to AAP751 /s (Homo sapiens, UniProt P05067); assay: Effect of test compounds on intact HSPG binding to immobilized AAP751 /s (ELISA); details: for HSPG binding, % of control: AAP751
T2 construct: maintained the entire extracellular portion of the AAP; made in house; host or cells: insect cells (recombinant baculovirus)
Procedure: as §1, §2, §3

[3] = test system: HSPG binding to fibronectin; assay: Effect of test compounds on intact HSPG binding to immobilized fibronectin (ELISA); design: species or system bovine; details: for HSPG binding, % of control: fibronectin
Sequence of HSPG binding to fibronectin (P07589 with tags, fused parts or gaps DEL1267-1357/DEL1723-1812 limits assumed): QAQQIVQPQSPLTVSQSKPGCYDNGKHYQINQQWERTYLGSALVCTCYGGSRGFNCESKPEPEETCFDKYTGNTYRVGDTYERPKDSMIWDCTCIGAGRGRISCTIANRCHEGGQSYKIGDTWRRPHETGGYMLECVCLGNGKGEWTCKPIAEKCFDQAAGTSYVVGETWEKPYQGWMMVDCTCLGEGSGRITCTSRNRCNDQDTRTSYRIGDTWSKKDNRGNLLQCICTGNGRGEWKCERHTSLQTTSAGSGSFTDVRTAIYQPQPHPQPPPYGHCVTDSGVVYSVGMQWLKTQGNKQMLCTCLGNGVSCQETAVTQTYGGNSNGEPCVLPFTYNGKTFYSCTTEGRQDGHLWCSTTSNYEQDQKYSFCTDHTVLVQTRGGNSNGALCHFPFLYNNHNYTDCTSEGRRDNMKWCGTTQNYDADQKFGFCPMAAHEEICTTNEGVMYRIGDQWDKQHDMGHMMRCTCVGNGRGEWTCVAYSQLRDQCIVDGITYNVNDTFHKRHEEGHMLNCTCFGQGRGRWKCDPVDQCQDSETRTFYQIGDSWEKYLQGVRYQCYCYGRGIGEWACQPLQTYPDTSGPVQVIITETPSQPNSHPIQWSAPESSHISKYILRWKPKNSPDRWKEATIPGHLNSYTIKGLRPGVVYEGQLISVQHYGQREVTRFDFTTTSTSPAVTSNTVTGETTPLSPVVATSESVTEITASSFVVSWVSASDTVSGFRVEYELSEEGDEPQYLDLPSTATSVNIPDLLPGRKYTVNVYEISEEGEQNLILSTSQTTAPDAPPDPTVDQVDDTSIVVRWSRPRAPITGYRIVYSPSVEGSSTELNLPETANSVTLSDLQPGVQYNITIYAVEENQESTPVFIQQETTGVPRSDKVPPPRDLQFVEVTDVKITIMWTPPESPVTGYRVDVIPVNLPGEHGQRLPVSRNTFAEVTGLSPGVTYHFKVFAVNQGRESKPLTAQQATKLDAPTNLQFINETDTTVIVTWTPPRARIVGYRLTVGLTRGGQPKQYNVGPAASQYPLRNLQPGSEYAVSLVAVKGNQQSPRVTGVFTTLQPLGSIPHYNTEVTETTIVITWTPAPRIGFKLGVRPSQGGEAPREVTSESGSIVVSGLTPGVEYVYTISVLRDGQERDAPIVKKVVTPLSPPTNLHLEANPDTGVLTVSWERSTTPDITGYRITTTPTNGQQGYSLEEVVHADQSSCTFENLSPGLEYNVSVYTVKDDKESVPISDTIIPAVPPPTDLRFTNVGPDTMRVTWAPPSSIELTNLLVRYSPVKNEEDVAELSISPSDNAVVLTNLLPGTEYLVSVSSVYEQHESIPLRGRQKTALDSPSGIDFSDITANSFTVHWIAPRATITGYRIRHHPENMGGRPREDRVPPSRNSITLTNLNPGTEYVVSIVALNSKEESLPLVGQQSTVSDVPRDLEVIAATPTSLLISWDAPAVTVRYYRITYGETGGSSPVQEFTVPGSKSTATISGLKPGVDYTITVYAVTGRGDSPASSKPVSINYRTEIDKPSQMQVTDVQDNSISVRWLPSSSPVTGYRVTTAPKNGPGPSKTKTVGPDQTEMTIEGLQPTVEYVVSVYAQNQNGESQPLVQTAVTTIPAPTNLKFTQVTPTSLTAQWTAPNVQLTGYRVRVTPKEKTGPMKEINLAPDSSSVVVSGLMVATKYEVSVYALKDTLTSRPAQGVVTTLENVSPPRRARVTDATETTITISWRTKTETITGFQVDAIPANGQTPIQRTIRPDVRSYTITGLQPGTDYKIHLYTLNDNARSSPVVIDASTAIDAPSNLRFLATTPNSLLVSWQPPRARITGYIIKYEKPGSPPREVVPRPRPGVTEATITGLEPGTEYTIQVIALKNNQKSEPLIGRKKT
Procedure: as §1
Fibronectin (from bovine plasma), heparin (grade II from porcine intestinal mucosa, average molecular weight=[…]), heparan sulfate, chondroitin sulfate, dextran sulfate, BSA, and alkaline phosphatase substrate were obtained from Sigma, St. Louis, Mo. Alkaline phosphatase conjugated goat anti-rabbit IgG was obtained from Boehringer-Manneheim, and heparitinase from ICN Biochemicals.
as §2, §3

[4] = biological target: HSPG core protein binding to AAP695 /s; assay: Effect of heparin on HSPG core protein binding to immobilized AAP695 /s (ELISA); details: heparin 400 μg/ml
Procedure: The assay used in studying the interaction between HSPG and protein ligands was an ELISA technique. Briefly, polystyrene micro-titer plates (Linbro, Flow Lab Inc.) were coated with a 100 μl solution, containing 1 μg/ml of the protein of interest (one of the three forms of AAP or fibronectin) in 20 mM NaHCO3 buffer pH 9.6. After incubation overnight at 4° C., the plates were rinsed with 0.15M NaCl, 20 mM Tris-Cl pH 7.5 (TBS). The plates were then incubated with 150 μl of 1% BSA in TBS for 2 hours at 37° C. to block the residual hydrophobic surface on the wells. After rinsing with TBS containing 0.05% (w/v) Tween 20 (TBS-Tween), 100 μl of various concentrations of HSPG in TBS-Tween were added. […] Finally, after further washing, the bound antibodies were detected by adding an alkaline phosphatase substrate solution (100 μl) containing 2 mg/ml p-nitrophenyl phosphate, 0.1 mM ZnCl2, 1 mM MgCl2 and 100 mM glycine pH 10. […] The absorbance of the released p-nitrophenol was measured at 405 nm with a Titertek Multiscan/MCC 340 (Flow Lab. Ltd.). The amounts of HSPG bound were determined by the net OD405 after substracting the OD from the blank wells in which the HSPG incubation step was omitted. When the actual amounts of HSPG bound were to be calculated, a set of standards (0.05-50 ng/well) of HSPG in NaHCO3 buffer were pre-coated into wells on the same plates as the test proteins. […]

[5] = test compound 500 μg/ml (Table II)

mode of inhibition of HSPG binding to AAP695 /s [1]: probably competitive
Activity: binding of intact HSPG, percentage ± SD of control ([1]; AAP695 /S, addition 500 μg/ml, HSPG 2 μg/ml): 10.2 ± 5.2%
HSPG binding, % of control ([1]; test compound 31.2 μg/ml): 29%
HSPG binding, % of control ([1]; test compound 62.5 μg/ml): 26%
HSPG binding, % of control ([1]; test compound 125 μg/ml): 16%
HSPG binding, % of control ([1]; test compound 250 μg/ml): 10%
HSPG binding, % of control [1, 5]: 7%
HSPG binding, % of control ([1]; test compound 1000 μg/ml): 3%
HSPG binding, % of control ([1]; test compound 2000 μg/ml): 2%
HSPG binding, % of control ([1]; test compound 4000 μg/ml): 1%
Ki ([1]; calculated from Kdapp = Kdcon (1+[I]/Ki), heparin 400 μg/ml, AAP695 /s): ~5.5 µM
factor by which HSPG affinity for AAP-695/s is reduced ([1]; heparin 400 μg/ml): 5-10
increase of Kd of intact HSPG for AAP695 /s in presence of heparin ([1]; heparin 400 μg/ml): approximately four-fold
inhibition of HSPG binding to AAP695 /s ([1]; test compound 62.5 μg/ml): 75%
mode of inhibition of HSPG binding to AAP751 /s [2]: noncompetitive
Activity: binding of intact HSPG, percentage ± SD of control ([2]; AAP751 /S, addition 500 μg/ml, HSPG 2 μg/ml): 69 ± 12%
HSPG binding, % of control ([2]; test compound 31.2 μg/ml): 89%
HSPG binding, % of control ([2]; test compound 62.5 μg/ml): 75%
HSPG binding, % of control ([2]; test compound 125 μg/ml): 84%
HSPG binding, % of control ([2]; test compound 250 μg/ml): 82%
HSPG binding, % of control [2, 5]: 54%
HSPG binding, % of control ([2]; test compound 1000 μg/ml): 60%
HSPG binding, % of control ([2]; test compound 2000 μg/ml): 53%
HSPG binding, % of control ([2]; test compound 4000 μg/ml): 58%
effect of heparin on Kd of HSPG when using AAP751 /s ([2]; heparin 400 μg/ml, intact HSPG or core protein): No such effect
mode of inhibition of HSPG binding to fibronectin [3]: noncompetitive
Activity: binding of intact HSPG, percentage ± SD of control ([3]; Fibronectin, addition 500 μg/ml, HSPG 2 μg/ml): 71.7 ± 4.9%
HSPG binding, % of control ([3]; test compound 31.2 μg/ml): 93%
HSPG binding, % of control ([3]; test compound 62.5 μg/ml): 91%
HSPG binding, % of control ([3]; test compound 125 μg/ml): 73%
HSPG binding, % of control ([3]; test compound 250 μg/ml): 85%
HSPG binding, % of control [3, 5]: 79%
HSPG binding, % of control ([3]; test compound 1000 μg/ml): 79%
HSPG binding, % of control ([3]; test compound 2000 μg/ml): 77%
HSPG binding, % of control ([3]; test compound 4000 μg/ml): 74%
Ki ([4]; calculated from Kdapp = Kdcon (1+[I]/Ki), AAP695 /s): ~1.6 µM
increase of Kd of HSPG core protein for AAP695 /s in presence of heparin [4]: approximately ten-fold
Substance: heparin
